Results taken from patent publication US10150969B2, “Methods and compositions to regulate plant transformation susceptibility” (priority 2010, dated 2018).

Experiments:
Arabidopsis roots = conditions: kinetin applied during infection; Agrobacterium tzs mutant; Hwang et al., 2010; cited from earlier work
[1] = tested on: Arabidopsis root segments; conditions: A. tumefaciens A348 or A281 (no TZS), 1.4 or 14 μM trans-zeatin
Method: Neither of these strains harbors TZS. Trans-zeatin concentrations representing the range secreted by nopaline-type A. tumefaciens strains were used.
A. tumefaciens was cultured in Yeast Extract-Peptone medium (Lichtenstein et al., 1986) containing the appropriate antibiotics. Root transformation assays were carried out as previously described by Nam et al. with minor modifications (Tenea et al., 2009). MS basal medium lacking phytohormones was used to select for tumors. GUS activity assays were carried out after infection of root segments with A. tumefaciens At849 (Narasimhulu et al., 1996) for 4-6 d, using X-gluc (Jefferson et al., 1987).
(§1) Roots were infected with bacteria at 10^6 cfu/mL (Col-0) or 10^8 cfu/mL (Bl-1). Following infection, root segments were either transferred to MS basal medium containing 100 μg/mL Timentin and incubated for 4-5 weeks before recording the percentage of root segments developing tumors, or used for RNA isolation.

[2] = tested on: Arabidopsis root segments; conditions: Col-0 and Bl-1 root segments, 24 h, 1.4 μM trans-zeatin
Method: Root segments of Arabidopsis Bl-1 and MTF-RNAi lines were incubated with A. tumefaciens A208 containing pJZ383 (Ptac::GFP). Root segments were co-cultivated with 10^5 cfu/mL (ecotype Columbia) or 10^8 cfu/mL (ecotype Bl-1) for 24 h in B5 minimal medium. Root segments were rinsed and visualized by epifluorescence microscopy.
Agrobacterium attachment assays were conducted as described herein. Col-0 and Bl-1 root segments were co-cultivated with A281 at 10^6 or 10^8 cfu/mL, respectively, for 24 h in the presence or absence of 1.4 μM trans-zeatin.

MTF = conditions: Col-0 and Bl-1 root segments treated for two days with trans-zeatin
Method: Real-time RT-PCR was carried out using total RNA isolated in triplicate from roots of plants grown in liquid B5 medium. PCR was performed in triplicate on an ABI Prism 7500 Sequence Detection System (Applied Biosystems, Foster City, Calif.). Expression levels were calculated by the relative standard curve method (Applied Biosystems) for all transcripts except ORA59, where the comparative cycle threshold method (Applied Biosystems) was used, and normalized to Actin2 transcript levels.
as §1

SMILES | susceptibility of roots to transformation (Arabidopsis roots) | increase in transformation efficiency ([1]; Col-0 roots, percentage of root segments developing tumors) | increase in susceptibility ([1]; ecotype Bl-1 roots) | attachment of A. tumefaciens A281 [2] | decrease of MTF transcript levels (MTF)
c1coc(CNc2ncnc3[nH]cnc23)c1 [kinetin] | increased the susceptibility | – | – | – | –
C/C(=C\CNc1ncnc2nc[nH]c12)CO [trans-zeatin] | – | 4-8 fold | 2-3 fold | increased attachment | 30-60%
